From patent publication US11873298B2, “Compounds and uses thereof” (JANSSEN PHARMACEUTICA NV, priority 2017, dated 2024) come the findings set out here.

Experiment [1] has as its target T1, SCD5 (Homo sapiens, UniProt Q86SK9).
T1 construct: host or cells: S. cerevisiae ole1Δ strain (W303 pdr1Δ pdr3Δ background), plasmid pRS316 with TDH3 promoter and CYC1 terminator
T1 sequence (Q86SK9 1-330): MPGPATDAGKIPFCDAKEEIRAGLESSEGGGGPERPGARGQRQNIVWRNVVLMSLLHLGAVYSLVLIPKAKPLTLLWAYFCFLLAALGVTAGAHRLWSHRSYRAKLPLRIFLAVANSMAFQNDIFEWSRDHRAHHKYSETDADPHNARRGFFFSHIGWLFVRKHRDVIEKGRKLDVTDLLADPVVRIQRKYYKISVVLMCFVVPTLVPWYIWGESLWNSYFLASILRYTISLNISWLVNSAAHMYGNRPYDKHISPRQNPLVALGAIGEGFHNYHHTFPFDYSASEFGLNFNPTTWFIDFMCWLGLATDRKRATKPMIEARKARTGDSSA
Put plainly: Growth inhibition of humanized yeast strain expressing SCD5 as sole desaturase. Type of experiment: cell-based. The gist of the method:
(§1)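 ole1Δ yeast (W303 pdr1Δ pdr3Δ background) carrying plasmid-borne Ole1, SCD1 or SCD5, grown in uracil-free media; cultures pre-grown in raffinose, seeded at 2× density 0.02 in galactose media with compound. Growth read as OD600 after 24 h at 30° C. for Ole1, 40 h for SCD1/SCD5.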

The target in experiment [2] is T2, SCD1 (Homo sapiens, UniProt O00767).
T2 construct: host or cells: S. cerevisiae ole1Δ strain (W303 pdr1Δ pdr3Δ background), plasmid pRS316 with TDH3 promoter and CYC1 terminator
T2 sequence (O00767 1-359): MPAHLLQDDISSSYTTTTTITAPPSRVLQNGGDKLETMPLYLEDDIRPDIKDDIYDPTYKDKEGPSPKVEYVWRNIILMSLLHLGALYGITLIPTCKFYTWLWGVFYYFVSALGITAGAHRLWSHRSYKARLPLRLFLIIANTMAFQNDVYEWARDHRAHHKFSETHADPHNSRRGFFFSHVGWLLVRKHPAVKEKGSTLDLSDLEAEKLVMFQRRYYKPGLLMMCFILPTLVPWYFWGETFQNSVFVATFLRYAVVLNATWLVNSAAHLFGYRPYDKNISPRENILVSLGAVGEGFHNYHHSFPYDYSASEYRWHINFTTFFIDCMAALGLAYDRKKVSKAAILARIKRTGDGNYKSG
Put plainly: Growth inhibition of humanized yeast strain expressing SCD1 as sole desaturase. Type of experiment: cell-based. The gist of the method: as §1

The mark [3] stands for this setting: humanized yeast strain expressing SCD5.
Where [4] appears, read: growth inhibition of humanized yeast strain expressing human SCD5.
[5] abbreviates: growth inhibition of humanized yeast strain expressing human SCD1.

The term IC50 denotes the midpoint of a concentration-inhibition curve. Lower therefore signals greater potency. As for `CC(=O)N1CC(n2ncc3ccc(-c4nc(N5CCNCC5)no4)cc32)C1` [Compound 937], the half-maximal inhibitory concentration (IC50) in experiment [1] (humanized yeast strain, 40 h) is over 45 µM; in experiment [2] (humanized yeast strain, 40 h) it was over 45 µM.

As to `CC(C)(C)OC(=O)N1CCC(c2noc(-c3cncc(N4CCC(F)(F)C4)c3)n2)CC1` [Compound 1181], the IC50 was 0.47 µM in experiment [1] (humanized yeast strain, 40 h) and over 45 µM in experiment [2] (humanized yeast strain, 40 h).

On to `O=C(C1CC1)N1CCC(c2noc(-c3cc(F)c4cnn(C5COC5)c4c3)n2)CC1` [Compound 1067], for which the IC50 is 0.00498 µM in experiment [1] (humanized yeast strain, 40 h) and over 45 µM in experiment [2] (humanized yeast strain, 40 h).

Turning to `CC(C)(C)OC(=O)N1C[C@@H]2[C@H](C1)[C@H]2C(=O)NCc1ccccc1` [Compound 771], the IC50 was over 45 µM in experiment [1] (humanized yeast strain, 40 h) and over 45 µM in experiment [2] (humanized yeast strain, 40 h).

`O=C(N1CCN(c2noc(-c3ccnc(Cl)c3)n2)CC1)C1(F)CC1` [Compound 1120]: the IC50 in experiment [1] (humanized yeast strain, 40 h) was 32.8 µM; in experiment [2] (humanized yeast strain, 40 h), over 45 µM.

Turning to `CC(C)(C)OC(=O)N1CC(c2noc(-c3ccc4cnn(C5COC5)c4c3)n2)C1` [Compound 926], the IC50 in experiment [1] (humanized yeast strain, 40 h) is over 45 µM; in experiment [2] (humanized yeast strain, 40 h) it was over 45 µM.

Turning to `CC(C)n1ncc2ccc(-c3noc(N4C[C@H]5CN(C(=O)C(C)(C)C)C[C@H]5C4)n3)cc21` [Compound 764], the IC50 in experiment [1] (humanized yeast strain, 40 h) was 16.7 µM; in experiment [2] (humanized yeast strain, 40 h), over 45 µM.

For the molecule `COC(=O)N1CCC(c2noc(-c3ccc4cn(C5CCN(C)C5=O)nc4c3)n2)CC1` (stereo not shown) [Compound 1102], the concentration for half-maximal inhibition (IC50) was over 45 µM in experiment [1] (humanized yeast strain, 40 h) and over 45 µM in experiment [2] (humanized yeast strain, 40 h).

As to `CC(C)n1ncc2ccc(-c3nc(N4CCN(C(=O)CC5CC5)CC4)no3)cc21` [Compound 874], the concentration for half-maximal inhibition (IC50) in experiment [1] (humanized yeast strain, 40 h) is 0.05 µM; in experiment [2] (humanized yeast strain, 40 h), over 45 µM.

Regarding `O=C(OC1CC1)N1CCN(c2noc(-c3ccc4cnn(C5COC5)c4c3)n2)CC(F)(F)C1` [Compound 1083], the half-inhibitory concentration (IC50) in experiment [1] (humanized yeast strain, 40 h) was 0.033 µM; in experiment [2] (humanized yeast strain, 40 h) it was over 45 µM.

`COC(=O)N1CCN(c2nc(-c3ccc4cnn(C(C)C)c4c3)no2)CC1` [Compound 356]: in experiment [1] (setting [3]), the IC50 was over 45 µM and the “SCD5 % Max Inhibition” value is 2.88%. In addition, the “SCD1 % Max Inhibition” value in experiment [2] (humanized yeast strain expressing SCD1) was found to be 51.18%.

In the case of `CC(C)(C)CC(=O)N1CCC(c2nc(-c3ccc4cnn(C(=O)C5COC5)c4c3)no2)CC1` [Compound 694], the 50% inhibitory concentration (IC50) in experiment [1] (setting [4]) and in experiment [2] (setting [5]) was over 45 µM in each case.

For `C[C@H]1C[C@H](c2noc(-c3ccc4cnn(C5COC5)c4c3)n2)CCN1C(=O)OC(C)(C)C` [Compound 1018], the IC50 in experiment [1] (humanized yeast strain, 40 h) was determined as 0.01 µM; in experiment [2] (humanized yeast strain, 40 h), 20.3 µM.

As for `O=C(c1ccccc1F)N1CCC(c2noc(-c3ccnc(NC4COC4)c3)n2)CC1` [Compound 1157], the IC50 in experiment [1] (humanized yeast strain, 40 h) is over 45 µM; in experiment [2] (humanized yeast strain, 40 h) it was over 45 µM.

In the case of `CC(C)(C)OC(=O)N1CCC(c2cnc(-c3ccc4cnn(C5COC5)c4c3)nc2)CC1` [Compound 985], the IC50 in experiment [1] (humanized yeast strain, 40 h) is 2.56 µM; in experiment [2] (humanized yeast strain, 40 h), over 45 µM.

As to `COC(=O)N1CCC(c2noc(-c3ccc4cnn(C5CCOC5)c4c3)n2)CC1` (stereo not shown) [Compound 813], the concentration for half-maximal inhibition (IC50) in experiment [1] (humanized yeast strain, 40 h) was 0.01 µM; in experiment [2] (humanized yeast strain, 40 h), over 45 µM.

In the case of `CC(C)(C)OC(=O)N1CCC(c2nc(N3CC4(COC4)C3)no2)CC1` [Compound 806], the half-maximal inhibitory concentration (IC50) in experiment [1] (humanized yeast strain, 40 h) was over 45 µM; in experiment [2] (humanized yeast strain, 40 h), over 45 µM.

As for `CC(C)(C)OC(=O)N1CCC(c2nc(-c3cccc(OC4COC4)c3)no2)CC1` [Compound 672], the IC50 in experiment [1] (setting [4]) was 0.441 µM; in experiment [2] (setting [5]) it was over 45 µM.

For `CC1(CC(=O)N2CCN(c3nc(-c4ccc5cnn(C6COC6)c5c4)no3)CC2)CC1` [Compound 693], the half-maximal inhibitory concentration (IC50) in experiment [1] (setting [4]) is 1.67 µM; in experiment [2] (setting [5]), over 45 µM.

As to `C[C@H]1C[C@@H](c2noc(-c3ccc4cnn(C5COC5)c4c3)n2)CCN1C(=O)OC(C)(C)C` [Compound 1025], the half-maximal inhibitory concentration (IC50) in experiment [1] (humanized yeast strain, 40 h) is 0.01 µM; in experiment [2] (humanized yeast strain, 40 h), over 45 µM.

For the molecule `CC(C)(C)OC(=O)N1CCC(c2noc(-c3ccc4cnn(C5COC5)c4c3)n2)CC1` [Compound 643], the half-inhibitory concentration (IC50) is 0.01 µM in experiment [1] (setting [4]) and over 45 µM in experiment [2] (setting [5]).

For the molecule `COC(=O)N1CCN(c2noc(-c3ccnc(OC4COC4)c3)n2)CC1` [Compound 1002], the concentration for half-maximal inhibition (IC50) in experiment [1] (humanized yeast strain, 40 h) is 5.05 µM; in experiment [2] (humanized yeast strain, 40 h), over 45 µM.

Consider `C[C@@H]1C[C@@H](c2noc(-c3ccc4cnn(C5COC5)c4c3)n2)CCN1C(=O)C1(F)CC1` [Compound 1065], for which the IC50 in experiment [1] (humanized yeast strain, 40 h) is 0.000386 µM; in experiment [2] (humanized yeast strain, 40 h) it was over 45 µM.

Regarding `CC(C)(C)OC(=O)N1CCC(c2noc(-c3ccc(N4CCOCC4)cc3)n2)CC1` [Compound 1150], the IC50 in experiment [1] (humanized yeast strain, 40 h) is over 45 µM; in experiment [2] (humanized yeast strain, 40 h) it was over 45 µM.
